Test results reported in patent US6869611B1, “Composition and method of effecting superficial chemical skin peels” (priority 1996, dated 2005).

Key:
[1] = saturation concentration / solubility of salicylic acid in solvent; type: physicochemical; settings: solution temperature of 25° C.
[2] = cited from earlier work

O=C(O)c1ccccc1O [salicylic acid, 2-hydroxybenzoic acid]
saturation concentration of salicylic acid in ethanol [1]: > 30 wt % | solubility in water [2]: relatively insoluble in water
